Laboratory results from patent US20230114728A1 (Venatorx Pharmaceuticals, Inc., priority 2019, published 2023).
pEC50: −log10 of the molar value. ≈ marks a conversion by molar mass, not a printed value.

Experiments:
[1] = test system: A. baumannii CDC-0036 OXA-65, and OXA-24; test: Broth microdilution MIC in iron-depleted CAMHB (IDM); assay type: cell-based; details: Acinetobacter baumannii, read-out: Minimum Inhibitory Concentration, CDC-0036
Experimental: (§1) Example IV: In Vitro Antibacterial Assays in Iron-Depleted Cation-Adjusted Mueller-Hinton Broth
(§2) To determine the ability of test compounds to inhibit the growth bacterial strains under conditions of iron-depletion, classic cell based broth microdilution minimum inhibitory concentration (MIC) assays were employed. MIC assays are performed according to CLSI methods except where otherwise noted (CLSI, 2018 and CLSI, 2019). The reference type strain E. coli ATCC 25922 was used to determine the ability of the PBP inhibitors to inhibit the growth of Enterobacteriaceae. Wild-type P. aeruginosa ATCC 27853, A. baumannii ATCC 17978 and A. baumannii ATCC 19606, along with the hyper-permeable P. aeruginosa ATCC 35151, an engineered efflux pump-compromised strain of P. aeruginosa (ΔmexAB-oprM), and an engineered efflux-pump compromised strain of A. baumannii IL123 (ABΔ3-ARAEcPore) were used to determine the ability of PBP inhibitors to penetrate the outer membrane of P. aeruginosa and A. baumannii and assess antibacterial activity against these important gram-negative organisms.
(§3) Briefly, cryo-preserved bacterial cultures of challenge strains are streaked for isolation on appropriate agar medium, in this case cation-adjusted Mueller Hinton agar. Following incubation to allow growth of the colonies, plates are sealed with parafilm and stored refrigerated for up to two weeks. For preparation of assay inoculum and to ensure low variability, at least 5 colonies are picked from the agar plates with an inoculating loop and aseptically transferred to a culture tube containing 3 mL of iron-depleted cation-adjusted Mueller Hinton broth (IDM)—see below for IDM preparation. The broth culture is grown for 3-5 hours at 37° C. with shaking at 200 rpm. Meanwhile, 2-fold serial dilutions of test compounds are conducted in a 96-well plate with a final volume of 75 μL per well at 2-fold the final desired concentration. After the dilution plates are set up the growing cultures are then diluted in a cuvette containing IDM and the optical density is measured at 600 nm. The inoculum is diluted such that 75 μL of this culture in IDM results in a starting bacterial concentration of 2-8×10^5 CFU/mL when added to the dilution plates. The plates are incubated for 16-20 hours for Enterobacteriaceae and Pseudomonas and 20-24 hours for Acinetobacter at 37° C. The MIC values are read visually as the lowest concentration well with no bacterial growth.
(§4) Method for Iron-Depleted Cation-Adjusted Mueller Hinton Broth (IDM) Preparation:
(§5) • Prepare cation-adjusted Mueller Hinton broth as per the manufacturer's recommendations and autoclave. • Add 100 g/L Chelex 100 resin, cover with foil and incubate with stirring for 2 hours • Remove Chelex 100 resin by filtration with 0.45 μm filter flask • Add the following back to the medium: • CaCl2 dihydrate: 82.5 mg/L • MgCl2 hexahydrate: 94.1 mg/L • ZnSO4: 10 μM • Adjust pH of medium to 7.3 with 5 N HCl • Sterilize using a 0.22 µm filter flask

[2] = test system: P. aeruginosa ATCC 27853; test: as above; assay type: cell-based; details: Pseudomonas aeruginosa, ATCC27853, read-out: Minimum Inhibitory Concentration, P. aeruginosa ATCC 27853
Experimental: as §1, §2, §3, §4, §5

[3] = test system: P. aeruginosa ATCC 35151; test: as above; assay type: cell-based; details: Pseudomonas aeruginosa, ATCC35151; iron-depleted MHB (IDM); hyper-permeable strain; read-out: Minimum Inhibitory Concentration, P. aeruginosa ATCC 35151
Experimental: as §1, §2, §3, §4, §5

[4] = test system: P. aeruginosa CDC-0054 producing VIM-4, OXA-50, and PAO; test: as above; assay type: cell-based; details: Pseudomonas aeruginosa, read-out: Minimum Inhibitory Concentration, P. aeruginosa CDC-0054
Experimental: as §1, §2, §3, §4, §5

[5] = test system: A. baumannii CDC-0033 producing NDM-1, and OXA-94; test: as above; assay type: cell-based; details: Acinetobacter baumannii, read-out: Minimum Inhibitory Concentration, CDC-0033
Experimental: as §1, §2, §3, §4, §5

[6] = test system: P. aeruginosa CDC-0095 producing OXA-50, and PAO; test: as above; assay type: cell-based; details: Pseudomonas aeruginosa, read-out: Minimum Inhibitory Concentration, P. aeruginosa CDC-0095
Experimental: as §1, §2, §3, §4, §5

[7] = test system: A. baumannii CDC-0083 producing NDM-1, PER-7, OXA-23, and OXA-69; test: as above; assay type: cell-based; details: Acinetobacter baumannii, read-out: Minimum Inhibitory Concentration, CDC-0083
Experimental: as §1, §2, §3, §4, §5

[8] = test system: A. baumannii ATCC 17978; test: as above; assay type: cell-based; details: Acinetobacter baumannii, ATCC17978, read-out: Minimum Inhibitory Concentration, ATCC 17978
Experimental: as §1, §2, §3, §4, §5

[9] = test system: P. aeruginosa (ΔmexAB-oprM); test: as above; assay type: cell-based; details: Pseudomonas aeruginosa, read-out: Minimum Inhibitory Concentration, P. aeruginosa ΔmexAB-OprM
Experimental: as §1, §2, §3, §4, §5

[10] = test system: A. baumannii ATCC 19606; test: as above; assay type: cell-based; details: Acinetobacter baumannii, ATCC19606, read-out: Minimum Inhibitory Concentration, ATCC 19606
Experimental: as §1, §2, §3, §4, §5

[11] = test system: P. aeruginosa CDC-0110; test: as above; assay type: cell-based; details: Pseudomonas aeruginosa, CDC0110, read-out: Minimum Inhibitory Concentration, P. aeruginosa CDC-0110
Experimental: as §2, §3, §4, §5

[12] = test system: A. baumannii CDC-0045 producing TEM-1D, OXA-23, and OXA-69; test: as above; assay type: cell-based; details: Acinetobacter baumannii, read-out: Minimum Inhibitory Concentration, CDC-0045
[13] = Bocillin-FL fluorescence polarization competition binding assay, A. baumannii PBP3; details: fluorescence polarization competition binding assay using Bocillin-FL; column 3; read-out: 4. baumannii PBP1a Potency
Excerpt: Example I: Experimental Method for Penicillin-Binding Protein Binding Assays with Bocillin-FL Via Fluorescence Polarization
To determine the ability of boronic acid-based test PBP inhibitors to bind Penicillin Binding Proteins (PBPs), Bocillin-FL (fluorescently-labeled penicillin V; ThermoFisher Scientific) was used in a fluorescence polarization (FP) competition binding assay to assess inhibitor binding to PBP2, PBP3 or PBP4 from Escherichia coli (K12), PBP3 from Pseudomonas aeruginosa (PA01), PBP1a, PBP2 and PBP3 from Acinetobacter baumannii (ATCC 19606), and PBP2 from Neiserria gonorrheae (FA19). PBPs were cloned and purified as described previously (E. coli PBPs, King, D. T, et al., ACS Infectious Diseases 2015, 1, 175-184; P. aeruginosa PBP3, Han et. al., PNAS 2010, 107 (51), 22002-22007; A. baumannii PBPs, Penwell et. al., Antimicrob. Agents Chemother. 2015, 59 (3), 1680-1689; N. gonorrhoeae PBP2, Singh et. al., J Biol. Chem. 2019, 294 (38), 14020-14032). To establish assay conditions for competition binding, enzyme titration/saturation binding experiments were initially performed. Bocillin-FL was prepared at 0.2 μM in a buffer comprised of 50 mM Hepes (pH 8.0), 300 mM NaCl and 5% (v/v) glycerol for reactions with E. coli, P. aeruginosa and N. gonorrhoeae PBPs, and 25 mM Tris (pH 8.0), 200 mM NaCl and 10% (v/v) glycerol and 0.005% (v/v) Tween 20 for reactions with A. baumannii PBPs. Saturation binding was performed by mixing 40 μl of PBP solutions ranging in concentrations from 0-24 μM with 40 μl of the 0.2 μM Bocillin-FL solution, in individual wells of a black 384-well microplate. FP was measured immediately upon mixing (Excitation, 490 nm; Emission, 520 nm; g-factor, 0.96), using a Cytation3 (BioTek) microplate reader and measured continuously for up to 120 minutes. […] The competition binding assay (80 μl final volume) was validated using beta-lactams and PBPs at final concentrations of: 1.5 μM, E. coli PBP3; 0.75 μM, P. aeruginosa PBP3; 1 μM A. baumannii PBP1a; 2.5 μM A. baumannii PBP2; 0.2 μM A. baumannii PBP3; and […] N. gonorrhoeae PBP2. Bocillin-FL was at 0.1 μM (0.05 μM with A. baumannii PBP1a) and beta-lactam concentrations ranged from 0-1000 μM. […] Bocillin-FL was added and the FP immediately measured for up to 60 minutes (90 minutes for E. coli PBP2). […] The beta-lactam potency was reported as the concentration of beta-lactam required to reduce the amount of PBP bound-Bocillin-FL by 50% (EC50). […] Binding assays for boronic acid PBP inhibitors were performed in an identical fashion for the respective PBPs

SMILES | MIC [1] [µg/mL] | MIC [2] [µg/mL] | MIC [3] [µg/mL] | MIC [4] [µg/mL] | MIC [5] [µg/mL] | MIC [6] [µg/mL] | MIC [7] [µg/mL] | MIC [8] [µg/mL] | MIC [9] [µg/mL] | MIC [10] [µg/mL] | MIC [11] [µg/mL] | MIC [12] [µg/mL] | pEC50 [13]
NCCCN1CCN(C(=O)N[C@@H](C(=O)N[C@H]2Cc3ccc(F)c(C(=O)O)c3OB2O)c2c(F)c(F)c(O)c(O)c2Cl)C(=O)C1=O [Example 227, (R)-3-((R)-2-(4-(3-aminopropyl)-2,3-dioxopiperazine-1-carboxamido)-2-(2-chloro-5,6-difluoro-3,4-dihydroxyphenyl)acetamido)-7-fluoro-2-hydroxy-3,4-dihydro-2H-benzo[e][1,2]oxaborinine-8-carboxylic acid] | 2 to 4 (≈ 3.04 to 6.08 µM) | 0.5 to 1 (≈ 0.76 to 1.52 µM) | 0.25 (≈ 0.38 µM) | 0.5 to 1 (≈ 0.76 to 1.52 µM) | 8 to 16 (≈ 12.2 to 24.3 µM) | 2 to 4 (≈ 3.04 to 6.08 µM) | 2 to 4 (≈ 3.04 to 6.08 µM) | 0.25 (≈ 0.38 µM) | 0.25 (≈ 0.38 µM) | 0.25 (≈ 0.38 µM) | 0.25 (≈ 0.38 µM) | 2 to 4 (≈ 3.04 to 6.08 µM) | < 4.00
CCN1CCN(C(=O)N[C@@H](C(=O)N[C@H]2Cc3ccc(F)c(C(=O)O)c3OB2O)c2c(F)c(F)c(O)c(O)c2Cl)C(=O)C1=O [Example 228, (R)-3-((R)-2-(2-chloro-5,6-difluoro-3,4-dihydroxyphenyl)-2-(4-ethyl-2,3-dioxopiperazine-1-carboxamido)acetamido)-7-fluoro-2-hydroxy-3,4-dihydro-2H-benzo[e][1,2]oxaborinine-8-carboxylic acid] | 2 to 4 (≈ 3.18 to 6.36 µM) | 0.5 to 1 (≈ 0.795 to 1.59 µM) | 0.25 (≈ 0.398 µM) | 2 to 4 (≈ 3.18 to 6.36 µM) | 2 to 4 (≈ 3.18 to 6.36 µM) |  | 2 to 4 (≈ 3.18 to 6.36 µM) | 0.5 to 1 (≈ 0.795 to 1.59 µM) | 0.25 (≈ 0.398 µM) | 0.25 (≈ 0.398 µM) | 0.5 to 1 (≈ 0.795 to 1.59 µM) | 2 to 4 (≈ 3.18 to 6.36 µM) | 4.52 to 5.00
CS(=O)(=O)N1CCN(C(=O)N[C@@H](C(=O)N[C@H]2Cc3ccc(F)c(C(=O)O)c3OB2O)c2c(F)c(F)c(O)c(O)c2Cl)C1=O [Example 229, (R)-3-((R)-2-(2-chloro-5,6-difluoro-3,4-dihydroxyphenyl)-2-(3-(methylsulfonyl)-2-oxoimidazolidine-1-carboxamido)acetamido)-7-fluoro-2-hydroxy-3,4-dihydro-2H-benzo[e][1,2]oxaborinine-8-carboxylic acid] | 2 to 4 (≈ 3.07 to 6.15 µM) | 0.5 to 1 (≈ 0.768 to 1.54 µM) | 0.25 (≈ 0.384 µM) | 2 to 4 (≈ 3.07 to 6.15 µM) | 2 to 4 (≈ 3.07 to 6.15 µM) |  | 2 to 4 (≈ 3.07 to 6.15 µM) | 0.25 (≈ 0.384 µM) | 0.25 (≈ 0.384 µM) | 0.5 to 1 (≈ 0.768 to 1.54 µM) | 0.5 to 1 (≈ 0.768 to 1.54 µM) | 8 to 16 (≈ 12.3 to 24.6 µM) | 4.52 to 5.00
